We go through four compounds from patent publication US10010614B2, “Derivatives of GLP-1 like peptides, and uses thereof” (Novo Nordisk A/S, priority 2013, dated 2018).

Test [1] concerns the target T1, human GLP-1 receptor (Homo sapiens, UniProt P43220).
T1 construct: expressed in transfected cells; host or cells: membranes prepared from BHK cells (parent line BHKTS13), clone FCW467-12A
In words: In vitro potency, CRE luciferase reporter gene assay in BHK cells expressing the human GLP-1 receptor. Type of test: cell-based. The settings on record: whole cell reporter gene assay, 3 h incubation, no HSA, averages of at least two replicates. As for the experimental part: The purpose of this example is to test the activity, or potency, of the GLP-1 derivatives in vitro. The in vitro potency is the measure of human GLP-1 receptor activation in a whole cell assay.
Semaglutide was included for comparison.
In vitro potency was determined by measuring the response of the human GLP-1 receptor in a reporter gene assay. The assay was performed in a stably transfected BHK cell line that expresses the human GLP-1 receptor and contains the DNA for the cAMP response element (CRE) coupled to a promoter and the gene for firefly luciferase (CRE luciferase). When the human GLP-1 receptor is activated it results in the production of cAMP, which in turn results in the luciferase protein being expressed. When assay incubation is completed the luciferase substrate (luciferin) is added and the enzyme converts luciferin to oxyluciferin to produce bioluminescence. The luminescence is measured as the readout for the assay.
The cells used in this assay (clone FCW467-12A/KZ10-1) were BHK cells with BHKTS13 as a parent cell line. The cells were derived from a clone (FCW467-12A) that expresses the human GLP-1 receptor and were established by further transfection with CRE luciferase to obtain the current clone.
The cells were cultured at 5% CO2 in Cell Culture Medium. They were aliquoted and stored in liquid nitrogen. Before each assay an aliquot is taken up and washed twice in PBS before being suspended at the desired concentration in the assay specific buffer. For 96-well plates the suspension was made to give a final concentration of 5×10^3 cells/well.
The following chemicals were used in the assay: Pluronic F-68 (10%) (Gibco 2404), human serum albumin (HSA) (Sigma A9511), ovalbumin (Sigma A5503), DMEM w/o phenol red (Gibco 11880-028), 1 M Hepes (Gibco 15630), Glutamax 100× (Gibco 35050) and steadylite plus (PerkinElmer 6016757).
Cell Culture Medium consisted of DMEM medium with 10% FBS (Fetal Bovine Serum; Invitrogen 16140-071), 1 mg/ml G418 (Invitrogen 15140-122), 240 nM MTX (methotrexate; Sigma M9929) and 1% pen/strep (penicillin/streptomycin; Invitrogen 15140-122).
Assay Medium consisted of DMEM w/o phenol red, 10 mM Hepes and 1× Glutamax. The Assay Buffer consisted of 2% ovalbumin and 0.2% Pluronic F-68 in Assay Medium.
1) Cell stocks were thawed in a 37° C. water bath.
2) Cells were washed three times in PBS.
3) The cells were counted and adjusted to 5×10^3 cells/50 μl (1×10^5 cells/ml) in Assay Medium. A 50 μl aliquot of cells was transferred to each well in the assay plate.
4) Stocks of the test compounds and reference compounds were diluted to a concentration of 0.2 μM in Assay Buffer. Compounds were diluted 10-fold to give the following concentrations: 2×10^−7 M, […]; 2×10^−9 M, 2×10^−10 M, 2×10^−11 M, 2×10^−12 M, 2×10^−13 M, and 2×10^−14 M. 5) A 50 μl aliquot of compound or blank was transferred from the dilution plate to the assay plate. Compounds were tested at the following final concentrations: 1×10^−7 M, 1×10^−8 M; 1×10^−9 M, 1×10^−10 M, 1×10^−11 M, 1×10^−12 M, 1×10^−13 M, and 1×10^−14 M. 6) The assay plate was incubated for 3 h in a 5% CO2 incubator at 37° C. 7) The assay plate was removed from the incubator and allowed to stand at room temperature for 15 min. 8) A 100 μl aliquot of steadylite plus reagent was added to each well of the assay plate (reagent was light sensitive). 9) Each assay plate was covered with aluminum foil to protect it from light and shaken for 30 min at room temperature. 10) Each assay plate was read in a Packard TopCount NXT instrument. Calculations and Results
The data from the TopCount instrument were transferred to GraphPad Prism software. The software performs a non-linear regression (log(agonist) vs response).
A minimum of two replicates was measured for each sample. The reported values are averages of the replicates.
(Reporter assays use an easily measured gene product as a stand-in for the process of interest.)

The target in test [2] is T1, human GLP-1 receptor. In words: GLP-1 receptor binding, competitive binding assay (125I-GLP-1, SPA) on isolated membranes.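 Note: test compounds added at a range of concentrations to membranes from cells expressing the human GLP-1 receptor, scored by displacement of labelled ligand, read with WGA SPA beads.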
Where [3] appears, read: High HSA IC50 (nM), high serum albumin (2.0% HSA final assay concentration).
Where [4] appears, read: Low HSA IC50 (nM), low serum albumin (max. 0.001% final assay concentration).

Structures are written as SMILES. Where two headings read alike, the source gives them in different places. Numbered stars: 1 amine (or outer) side, 2 acyl side, 3 side chain; on linkers, the order of the positions; unused ones are H or OH. Square brackets hold non-standard residues; d marks the D form. Side chains are listed from the residue outwards. Peptide text beside a SMILES is read from it. * marks the point of attachment. X3 = O=C(O)CCCCCCCCCCCCCCCCCCC(=O)N[C@@H](CCC(=O)NCCCOCCOCCOCCCNC(=O)COCC(=O)*)C(=O)O; C20 diacid = O=C(O)CCCCCCCCCCCCCCCCCCC(=O)*; γGlu = O=C(O)[C@H](CCC(=O)[*:2])N[*:1]; Trx = NC[C@H]1CC[C@H](C(=O)O)CC1; AEEA = NCCOCCOCC(=O)O; Aib = CC(C)(N)C(=O)O

T1 sequence (P43220 24-463): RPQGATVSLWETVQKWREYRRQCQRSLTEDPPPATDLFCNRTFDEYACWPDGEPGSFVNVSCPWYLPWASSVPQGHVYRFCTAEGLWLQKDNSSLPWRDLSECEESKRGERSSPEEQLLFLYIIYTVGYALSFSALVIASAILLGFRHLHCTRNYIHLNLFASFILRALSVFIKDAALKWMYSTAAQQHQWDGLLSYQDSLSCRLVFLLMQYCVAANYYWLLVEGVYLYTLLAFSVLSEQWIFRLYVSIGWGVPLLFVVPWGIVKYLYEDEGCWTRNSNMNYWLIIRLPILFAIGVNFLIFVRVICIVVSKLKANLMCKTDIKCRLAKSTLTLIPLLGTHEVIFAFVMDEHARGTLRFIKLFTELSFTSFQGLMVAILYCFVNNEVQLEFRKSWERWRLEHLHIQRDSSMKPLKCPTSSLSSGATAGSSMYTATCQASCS

For `CC[C@H](C)[C@H](NC(=O)[C@H](Cc1ccccc1)NC(=O)[C@H](CCC(=O)O)NC(=O)[C@H](CCCNC(=N)N)NC(=O)[C@H](C)NC(=O)[C@H](C)NC(=O)[C@H](CCC(N)=O)NC(=O)[C@H](CCC(=O)O)NC(=O)[C@H](CCC(=O)O)NC(=O)[C@H](CC(C)C)NC(=O)[C@H](Cc1ccc(O)cc1)NC(=O)[C@H](CO)NC(=O)[C@H](CO)NC(=O)[C@@H](NC(=O)[C@H](CC(=O)O)NC(=O)[C@H](CO)NC(=O)[C@@H](NC(=O)[C@H](Cc1ccccc1)NC(=O)[C@@H](NC(=O)CNC(=O)[C@H](CCC(=O)O)NC(=O)C(C)(C)NC(=O)[C@@H](N)Cc1c[nH]cn1)[C@@H](C)O)[C@@H](C)O)C(C)C)C(=O)N[C@@H](C)C(=O)N[C@@H](Cc1c[nH]c2ccccc12)C(=O)N[C@@H](CC(C)C)C(=O)N[C@H](C(=O)N[C@@H](CCCNC(=N)N)C(=O)NCC(=O)N[C@@H](CCCNC(=N)N)C(=O)NCC(=O)N[C@@H](CCCCNC(=O)COCCOCCNC(=O)COCCOCCNC(=O)CC[C@H](NC(=O)[C@H]1CC[C@H](CNC(=O)CCCCCCCCCCCCCCCCCCC(=O)O)CC1)C(=O)O)C(=O)N1CCC[C@H]1C(=O)N[C@@H](CCC(=O)O)C(=O)NCC(=O)N[C@@H](CCCCNC(=O)COCCOCCNC(=O)COCCOCCNC(=O)CC[C@H](NC(=O)[C@H]1CC[C@H](CNC(=O)CCCCCCCCCCCCCCCCCCC(=O)O)CC1)C(=O)O)C(=O)O)C(C)C` [Example 12] (H-H[Aib]EGTFTSDVSSYLEEQAAREFIAWLVRGRGK([AEEA-AEEA-γGlu-Trx-C20 diacid])PEGK([AEEA-AEEA-γGlu-Trx-C20 diacid])-OH), on human GLP-1 receptor [1], the EC50 – broadly, the concentration giving half of the maximal effect – was found to be 0.024 nM. In addition, the figures for the IC50 on human GLP-1 receptor [2] (setting [3]) and at human GLP-1 receptor [2] (setting [4]) were 212 nM and 1.4 nM, respectively.
Take `CC[C@H](C)[C@H](NC(=O)[C@H](Cc1ccccc1)NC(=O)[C@H](CCC(=O)O)NC(=O)[C@H](CCCNC(=N)N)NC(=O)[C@H](C)NC(=O)[C@H](C)NC(=O)[C@H](CCC(N)=O)NC(=O)[C@H](CCC(=O)O)NC(=O)[C@H](CCC(=O)O)NC(=O)[C@H](CC(C)C)NC(=O)[C@H](Cc1ccc(O)cc1)NC(=O)[C@H](CO)NC(=O)[C@H](CO)NC(=O)[C@@H](NC(=O)[C@H](CC(=O)O)NC(=O)[C@H](CO)NC(=O)[C@@H](NC(=O)[C@H](Cc1ccccc1)NC(=O)[C@@H](NC(=O)CNC(=O)[C@H](CCC(=O)O)NC(=O)C(C)(C)NC(=O)[C@@H](N)Cc1c[nH]cn1)[C@@H](C)O)[C@@H](C)O)C(C)C)C(=O)N[C@@H](C)C(=O)N[C@@H](Cc1c[nH]c2ccccc12)C(=O)N[C@@H](CC(C)C)C(=O)N[C@H](C(=O)N[C@@H](CCCNC(=N)N)C(=O)NCC(=O)N[C@@H](CCCNC(=N)N)C(=O)NCC(=O)N[C@@H](CCCCNC(=O)COCCOCCNC(=O)COCCOCCNC(=O)CC[C@H](NC(=O)[C@H]1CC[C@H](CNC(=O)CCCCCCCCCCCCCCCCCCC(=O)O)CC1)C(=O)O)C(=O)N[C@@H](CO)C(=O)N[C@@H](C)C(=O)N[C@@H](CCC(=O)O)C(=O)N[C@@H](CCCCNC(=O)COCCOCCNC(=O)COCCOCCNC(=O)CC[C@H](NC(=O)[C@H]1CC[C@H](CNC(=O)CCCCCCCCCCCCCCCCCCC(=O)O)CC1)C(=O)O)C(=O)O)C(C)C` [Example 13] (H-H[Aib]EGTFTSDVSSYLEEQAAREFIAWLVRGRGK([AEEA-AEEA-γGlu-Trx-C20 diacid])SAEK([AEEA-AEEA-γGlu-Trx-C20 diacid])-OH): the EC50 on human GLP-1 receptor [1] amounted to 0.024 nM. The values for the IC50 on human GLP-1 receptor [2] (setting [3]) and on human GLP-1 receptor [2] (setting [4]) were 160 nM and 1.4 nM, respectively.
In turn, `CC[C@H](C)[C@H](NC(=O)[C@H](Cc1ccccc1)NC(=O)[C@H](CCC(=O)O)NC(=O)[C@H](CCCNC(=N)N)NC(=O)[C@H](C)NC(=O)[C@H](C)NC(=O)[C@H](CCC(N)=O)NC(=O)[C@H](CCC(=O)O)NC(=O)[C@H](CCC(=O)O)NC(=O)[C@H](CC(C)C)NC(=O)[C@H](Cc1ccc(O)cc1)NC(=O)[C@H](CO)NC(=O)[C@H](CO)NC(=O)[C@@H](NC(=O)[C@H](CC(=O)O)NC(=O)[C@H](CO)NC(=O)[C@@H](NC(=O)[C@H](Cc1ccccc1)NC(=O)[C@@H](NC(=O)CNC(=O)[C@H](CCC(=O)O)NC(=O)C(C)(C)NC(=O)[C@@H](N)Cc1c[nH]cn1)[C@@H](C)O)[C@@H](C)O)C(C)C)C(=O)N[C@@H](C)C(=O)N[C@@H](Cc1c[nH]c2ccccc12)C(=O)N[C@@H](CC(C)C)C(=O)N[C@H](C(=O)N[C@@H](CCCNC(=N)N)C(=O)NCC(=O)N[C@@H](CCCNC(=N)N)C(=O)NCC(=O)N[C@@H](CCCCNC(=O)COCC(=O)NCCCOCCOCCOCCCNC(=O)CC[C@H](NC(=O)CCCCCCCCCCCCCCCCCCC(=O)O)C(=O)O)C(=O)NCC(=O)NCC(=O)N[C@@H](CO)C(=O)N[C@@H](CCCCNC(=O)COCC(=O)NCCCOCCOCCOCCCNC(=O)CC[C@H](NC(=O)CCCCCCCCCCCCCCCCCCC(=O)O)C(=O)O)C(=O)O)C(C)C` [Example 22, N{Alpha}([Aib8,Glu22,Arg26,Arg34]-GLP-1-(7-37)-peptidyl)-N{Epsilon}[2-[2-[3-[2-[2-[3-[[(4S)-4-carboxy-4-(19-carboxynonadecanoylamino)butanoyl]amino]propoxy]ethoxy]ethoxy]propylamino]-2-oxoethoxy]acetyl]Lys-Gly-Gly-Ser-N{Epsilon}[2-[2-[3-[2-[2-[3-[[(4S)-4-carboxy-4-(19-carboxynonadecanoylamino)butanoyl]amino]propoxy]ethoxy]ethoxy]propylamino]-2-oxoethoxy]acetyl]Lys] (H-H[Aib]EGTFTSDVSSYLEEQAAREFIAWLVRGRGK(X3)GGSK(X3)-OH; N-terminus and C-terminus assumed) gave an EC50 on human GLP-1 receptor [1] of 0.01 nM. Further, the IC50 (as a rule, the concentration needed to halve the response being measured) on human GLP-1 receptor [2] (high serum albumin (2.0% HSA final assay concentration), read-out: High HSA IC50) is 194 nM; on human GLP-1 receptor [2] (low serum albumin (max. 0.001% final assay concentration), read-out: Low HSA IC50), 0.82 nM.
At human GLP-1 receptor [1], `CC[C@H](C)[C@H](NC(=O)[C@H](Cc1ccccc1)NC(=O)[C@H](CCC(=O)O)NC(=O)[C@H](CCCNC(=N)N)NC(=O)[C@H](C)NC(=O)[C@H](C)NC(=O)[C@H](CCC(N)=O)NC(=O)[C@H](CCC(=O)O)NC(=O)[C@H](CCC(=O)O)NC(=O)[C@H](CC(C)C)NC(=O)[C@H](Cc1ccc(O)cc1)NC(=O)[C@H](CO)NC(=O)[C@H](CO)NC(=O)[C@@H](NC(=O)[C@H](CC(=O)O)NC(=O)[C@H](CO)NC(=O)[C@@H](NC(=O)[C@H](Cc1ccccc1)NC(=O)[C@@H](NC(=O)CNC(=O)[C@H](CCC(=O)O)NC(=O)C(C)(C)NC(=O)[C@@H](N)Cc1c[nH]cn1)[C@@H](C)O)[C@@H](C)O)C(C)C)C(=O)N[C@@H](C)C(=O)N[C@@H](Cc1c[nH]c2ccccc12)C(=O)N[C@@H](CC(C)C)C(=O)N[C@H](C(=O)N[C@@H](CCCNC(=N)N)C(=O)NCC(=O)N[C@@H](CCCNC(=N)N)C(=O)NCC(=O)N[C@@H](CCCCNC(=O)COCCOCCNC(=O)COCCOCCNC(=O)COCCOCCNC(=O)COCCOCCNC(=O)COCCOCCNC(=O)COCCOCCNC(=O)CC[C@H](NC(=O)[C@H]1CC[C@H](CNC(=O)CCCCCCCCCCCCCCCCCCC(=O)O)CC1)C(=O)O)C(=O)NCC(=O)NCC(=O)N[C@@H](CO)C(=O)N[C@@H](CCCCNC(=O)COCCOCCNC(=O)COCCOCCNC(=O)COCCOCCNC(=O)COCCOCCNC(=O)COCCOCCNC(=O)COCCOCCNC(=O)CC[C@H](NC(=O)[C@H]1CC[C@H](CNC(=O)CCCCCCCCCCCCCCCCCCC(=O)O)CC1)C(=O)O)C(=O)O)C(C)C` [Example 24] (H-H[Aib]EGTFTSDVSSYLEEQAAREFIAWLVRGRGK([AEEA-AEEA-AEEA-AEEA-AEEA-AEEA-γGlu-Trx-C20 diacid])GGSK([AEEA-AEEA-AEEA-AEEA-AEEA-AEEA-γGlu-Trx-C20 diacid])-OH) returned an EC50 of 0.007 nM. For the same compound, the values for the IC50 at human GLP-1 receptor [2] (setting [3]) and on human GLP-1 receptor [2] (setting [4]) were 84 nM and 0.67 nM, respectively.
